Test results as given in patent US20260258084A1, “New Peptides as Selective IL-23 Receptor Antagonists” (Sanofi, priority 2022, published 2026).
Converted amounts (≈) assume the structure as drawn. Read-outs that look alike come from different tables or passages of the source. Starred links: 1 amine or outer side, 2 acyl side, 3 side chain; linkers in the order of their positions; H or OH if unused. Positions of bridges follow the written chain, without caps; N, C: chain ends. Non-standard residues stand in square brackets, D forms with d. Residues, ends and D or L forms follow the SMILES beside them. *: point of attachment. X3 = CN(CCCCC(=O)N[C@@H](CS[*:2])C(=O)[*:1])[*:3]; Trp(7-Me) = Cc1cccc2c(C[C@H](N)C(=O)O)c[nH]c12; 2Nal = N[C@@H](Cc1ccc2ccccc2c1)C(=O)O; AEF = NCCOc1ccc(C[C@H](N)C(=O)O)cc1; 3Pal = N[C@@H](Cc1cccnc1)C(=O)O; αMeL = CC(C)C[C@](C)(N)C(=O)O; Thp = NC1(C(=O)O)CCOCC1; Me2NCH2CH2 = CN(C)CC*; Aib = CC(C)(N)C(=O)O; Ahx = NCCCCCC(=O)O; Ava = NCCCCC(=O)O; Sar = CNCC(=O)O

How the values were obtained:
Pepsin = tested on: T1, Pepsin; assay: Protease stability in simulated gastric fluid (Pepsin-SGF, FaSSGF); assay type: in vitro ADME; details: simulated gastric fluid with pepsin (Pepsin-SGF), 60 min, 1 μM peptide, 37° C., read-out: FaSSGF 60 (min), remaining percent of peptide
T1 construct: purchased Merck Millipore
Summary of the method: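 Peptides at 1 μM final in pepsin-containing SGF at 37° C, sampled at 0, 60, 120 and 240 min, quenched with ethanol (0.1% HCOOH). Analysed by LCMS/MS; percent remaining from peak area relative to time 0 (set to 100%).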

[1] = tested on: IL-23 induced STAT3 signaling in HEK-Blue™ IL-23 cells; assay: IL-23 induced STAT3 signaling in HEK-Blue IL-23 cells (SEAP reporter); assay type: cell-based; details: human IL23 0.25 ng/ml, read-out: pSTAT3
Summary of the method: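 HEK-Blue IL-23 cells (10,000/well) pre-incubated 60 min at 37 °C with serially diluted peptides, then stimulated overnight with human IL-23 (0.25 ng/ml final). STAT3-driven SEAP in supernatant detected with QUANTI-Blue after 45 min at RT (OD 620-655 nm); dose-response curves fitted.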

[2] = Chemical stability assessment of peptides (relative purity loss); assay type: physicochemical; details: 24 hours at 37° C.; for Chemical stability (relative purity loss) Buffer pH 1.2: 50 mM HCl pH 1.2 + acetonitrile (1:1); for Chemical stability (relative purity loss) Buffer pH 6.5: 50 mM phosphate buffer pH 6.5 + acetonitrile (1:1); for Chemical stability (relative purity loss) Buffer pH 7.4: 50 mM phosphate buffer pH 7.4 + acetonitrile (1:1)
Summary of the method: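 Peptide solutions at 1 mg/ml (purity-corrected) in 1:1 acetonitrile with 50 mM HCl pH 1.2, or 50 mM phosphate pH 6.5 or pH 7.4, held 24 hours at 2° C. and 37° C. Supernatants analysed by UHPLC-UV; relative purity loss taken as percent drop in peak-area purity from 0 to 24 hours at 37° C.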

[3] = target: T2, human interleukin-23 receptor (recombinant human IL-23R-Fc chimera) (Homo sapiens, UniProt Q5VWK5); assay: Human ELISA IL23/IL23R (assay for specific human IL23R antagonists); assay type: binding; details: Table 10; read-out: Human ELISA IL23/IL23R IC50
T2 construct: Fc (IgG Fc fusion)
Summary of the method: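 Plates coated overnight at 4 °C with human IL23 ([…]), blocked, then serially diluted peptides added with recombinant human IL-23R-Fc (0.1 μg/ml final) for 60 min at room temperature. Bound receptor detected with anti-human IgG1-HRP and fluorogenic peroxidase substrate.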

[4] = Solubility testing of peptides at different pH; assay type: physicochemical; details: target concentration 1 mg/ml, 2 hours agitation
Summary of the method: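 Solid obtained by drying down DMSO stock was taken up at 1 mg/mL in 50 mM HCl pH 1.2 or 50 mM phosphate pH 6.5, 7.4 or 9.0, agitated gently for 2 h, then filtered (0.45 μm). Solubility by UPLC-UV peak area against a DMSO reference standard curve, corrected for extinction coefficients.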

[5] = 50 mM HCl buffer, 50 mM HCl pH 1.2, read-out: Solubility Buffer pH 1.2
[6] = 50 mM phosphate buffer pH 6.5, read-out: Solubility Buffer pH 6.5
[7] = 50 mM phosphate buffer pH 7.4, read-out: Solubility Buffer pH 7.4
[8] = 50 mM phosphate buffer pH 9.0, read-out: Solubility Buffer pH 9.0

Row | SMILES | remaining at 1 h, 1 µM (Pepsin) | Chemical stability (relative purity loss) Buffer pH 1.2 [2] | Chemical stability (relative purity loss) Buffer pH 6.5 [2] | Chemical stability (relative purity loss) Buffer pH 7.4 [2] | IC50 [3] | solubility at 2 h [4, 5] | solubility at 2 h [4, 6] | solubility at 2 h [4, 7] | solubility at 2 h [4, 8] | IC50 [1]
1 | CC(=O)N[C@H]1CCCCNC(=O)[C@@H]2CSSC[C@H](NC(=O)[C@H](CCC(N)=O)NC(=O)[C@H](Cc3c[nH]c4ccccc34)NC1=O)C(=O)N[C@@H](Cc1ccc(OCCN)cc1)C(=O)N[C@@H](Cc1ccc3ccccc3c1)C(=O)NC(C)(C)C(=O)N[C@H](C(=O)N[C@@H](CC(N)=O)C(=O)N[C@@H](CC(N)=O)C(N)=O)CCC(=O)N(C)CCCCC(=O)N2 [compound 12] (Ac-KWQC[AEF][2Nal][Aib]ENN-NH2; linker 1-4-8 via X3) | 53% | 24.5% | 1.1% | 3.6% | 590 pM | 310 µg/mL (≈ 188 µM) | 290 µg/mL (≈ 176 µM) | 190 µg/mL (≈ 115 µM) | 110 µg/mL (≈ 66.8 µM) | 27900 pM
2 | CC(=O)NCCCC[C@@H]1NC(=O)[C@H](Cc2c[nH]c3c(C)cccc23)NC(=O)[C@H]([C@@H](C)O)NC(=O)[C@H](CC(N)=O)NC(=O)[C@@H]2CSSC[C@H](NC1=O)C(=O)N[C@@H](Cc1ccc(OCCN(C)C)cc1)C(=O)N[C@@H](Cc1ccc3ccccc3c1)C(=O)NC1(CCOCC1)C(=O)N[C@H](C(=O)N[C@@H](CC(N)=O)C(=O)N[C@@H](Cc1cccnc1)C(N)=O)CCC(=O)NCCCCC(=O)N2 [compound 51] ([Ava]CNT[Trp(7-Me)]K(Ac)CY(Me2NCH2CH2)[2Nal][Thp]EN[3Pal]-NH2; disulfide 2-7; lactam N-11) | 94% | 17.1% | 0.2% | 0.7% | 190 pM | ≥ 1020 µg/mL | ≥ 930 µg/mL | 430 µg/mL (≈ 234 µM) | 100 µg/mL (≈ 54.4 µM) | 50 pM
3 | CC(=O)NCCCC[C@@H]1NC(=O)[C@H](Cc2c[nH]c3c(C)cccc23)NC(=O)[C@H]([C@@H](C)O)NC(=O)[C@H](CC(N)=O)NC(=O)[C@@H]2CSSC[C@H](NC1=O)C(=O)N[C@@H](Cc1ccc(OCCN(C)C)cc1)C(=O)N[C@@H](Cc1ccc3ccccc3c1)C(=O)N[C@@](C)(CC(C)C)C(=O)N[C@H](C(=O)N[C@@H](CC(N)=O)C(=O)N[C@@H](Cc1c[nH]cn1)C(=O)N(C)CC(N)=O)CCC(=O)NCCCCC(=O)N2 [compound 47] ([Ava]CNT[Trp(7-Me)]K(Ac)CY(Me2NCH2CH2)[2Nal][αMeL]ENH[Sar]-NH2; disulfide 2-7; lactam N-11) | 96% | 2.9% | 0.6% | 0.9% | 310 pM | ≥ 1000 µg/mL | ≥ 950 µg/mL | 540 µg/mL (≈ 284 µM) | 110 µg/mL (≈ 57.9 µM) | 570 pM
4 | CC(C)C[C@@H](NC(=O)[C@H](CC(N)=O)NC(=O)[C@@H]1CCC(=O)NCCCCC(=O)N[C@H]2CSSC[C@H](NC(=O)[C@H](CCC(N)=O)NC(=O)[C@H](Cc3c[nH]c4ccccc34)NC(=O)[C@H]([C@@H](C)O)NC(=O)[C@H](CC(N)=O)NC2=O)C(=O)N[C@@H](Cc2ccc(OCCN(C)C)cc2)C(=O)N[C@@H](Cc2ccc3ccccc3c2)C(=O)N[C@@](C)(CC(C)C)C(=O)N1)C(N)=O [compound 10] ([Ava]CNTWQCY(Me2NCH2CH2)[2Nal][αMeL]EN[dL]-NH2; disulfide 2-7; lactam N-11) | 77% | 6.7% | 0.1% | 0.4% | 580 pM | < 10 µg/mL | 70 µg/mL (≈ 40.1 µM) | 10 µg/mL (≈ 5.72 µM) | < 10 µg/mL | 25800 pM

Continued, in another order:

Row | remaining at 1 h, 1 µM (Pepsin) | Chemical stability (relative purity loss) Buffer pH 1.2 [2] | Chemical stability (relative purity loss) Buffer pH 6.5 [2] | Chemical stability (relative purity loss) Buffer pH 7.4 [2] | IC50 [3] | solubility at 2 h [4, 5] | solubility at 2 h [4, 6] | solubility at 2 h [4, 7] | solubility at 2 h [4, 8] | SMILES | IC50 [1]
5 | 2% | 13.8% | 5.5% | 19.8% | 440 pM | ≥ 1040 µg/mL | ≥ 1060 µg/mL | ≥ 960 µg/mL | 750 µg/mL (≈ 463 µM) | C[C@@H](O)[C@@H]1NC(=O)[C@H](CC(N)=O)NC(=O)[C@@H]2CSSC[C@H](NC(=O)[C@H](CCC(N)=O)NC(=O)[C@H](Cc3c[nH]c4ccccc34)NC1=O)C(=O)N[C@@H](Cc1ccc(OCCN)cc1)C(=O)N[C@@H](Cc1ccc3ccccc3c1)C(=O)NC(C)(C)C(=O)N[C@H](C(=O)N[C@@H](CC(N)=O)C(=O)NCC(N)=O)CC(=O)NCCCCCC(=O)N2 [compound 9] ([Ahx]CNTWQC[AEF][2Nal][Aib]DNG-NH2; disulfide 2-7; lactam N-11) | 65000 pM
6 | 1% | 22.4% | 0.7% | 7.0% | 950 pM | 30 µg/mL (≈ 18.8 µM) | 20 µg/mL (≈ 12.6 µM) | 20 µg/mL (≈ 12.6 µM) | 10 µg/mL (≈ 6.28 µM) | COc1ccc(C[C@@H]2NC(=O)[C@@H]3CSSC[C@H](NC(=O)CCCCNC(=O)CC[C@@H](C(=O)N[C@@H](CC(N)=O)C(=O)NCC(N)=O)NC(=O)C(C)(C)NC(=O)[C@H](Cc4ccc5ccccc5c4)NC2=O)C(=O)N[C@@H](CC(N)=O)C(=O)N[C@@H]([C@@H](C)O)C(=O)N[C@@H](Cc2c[nH]c4ccccc24)C(=O)N[C@@H](CCC(N)=O)C(=O)N3)cc1 [compound 4] ([Ava]CNTWQCY(Me)[2Nal][Aib]ENG-NH2; disulfide 2-7; lactam N-11) | 34800 pM
